Assay results as given in patent US20250340552A1, “COMPOUNDS, COMPOSITIONS AND METHODS OF TREATING DISORDERS” (HOTSPOT THERAPEUTICS, INC., priority 2022, published 2025).
Read-outs that look alike come from different tables or passages of the source.

Target: T1, Cbl-B (Homo sapiens, UniProt Q13191)
T1 construct: MSD-Based Assay for Degradation of Cbl-B in THP-1 Cells; endogenous in cells; host or cells: THP-1 (title) / Jurkat (protocol text)
Experiment: MSD-based assay for degradation of Cbl-B in THP-1 cells
Type: cell-based
How it was run: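 THP-1 cells were treated with compound for 24 h at 37 °C. Cbl-B in lysates was quantified by MSD sandwich immunoassay, with anti-Cbl-B capture antibody at 1 ug/mL and SULFO-TAG anti-rabbit detection. Maximal degradation (Dmax) was binned as A >70%, B 50–70%, C 30–50%, D <30%.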

[1] = Cbl-B degradation, Jurkat cells seeded (heading: THP-1 cells), 24 hours incubation, MSD readout
[2] = Cbl-B degradation, Jurkat cells seeded (heading: THP-1 cells), 24 hours incubation, MSD readout, read-out: Dmax

T1 sequence (Q13191 whole entry): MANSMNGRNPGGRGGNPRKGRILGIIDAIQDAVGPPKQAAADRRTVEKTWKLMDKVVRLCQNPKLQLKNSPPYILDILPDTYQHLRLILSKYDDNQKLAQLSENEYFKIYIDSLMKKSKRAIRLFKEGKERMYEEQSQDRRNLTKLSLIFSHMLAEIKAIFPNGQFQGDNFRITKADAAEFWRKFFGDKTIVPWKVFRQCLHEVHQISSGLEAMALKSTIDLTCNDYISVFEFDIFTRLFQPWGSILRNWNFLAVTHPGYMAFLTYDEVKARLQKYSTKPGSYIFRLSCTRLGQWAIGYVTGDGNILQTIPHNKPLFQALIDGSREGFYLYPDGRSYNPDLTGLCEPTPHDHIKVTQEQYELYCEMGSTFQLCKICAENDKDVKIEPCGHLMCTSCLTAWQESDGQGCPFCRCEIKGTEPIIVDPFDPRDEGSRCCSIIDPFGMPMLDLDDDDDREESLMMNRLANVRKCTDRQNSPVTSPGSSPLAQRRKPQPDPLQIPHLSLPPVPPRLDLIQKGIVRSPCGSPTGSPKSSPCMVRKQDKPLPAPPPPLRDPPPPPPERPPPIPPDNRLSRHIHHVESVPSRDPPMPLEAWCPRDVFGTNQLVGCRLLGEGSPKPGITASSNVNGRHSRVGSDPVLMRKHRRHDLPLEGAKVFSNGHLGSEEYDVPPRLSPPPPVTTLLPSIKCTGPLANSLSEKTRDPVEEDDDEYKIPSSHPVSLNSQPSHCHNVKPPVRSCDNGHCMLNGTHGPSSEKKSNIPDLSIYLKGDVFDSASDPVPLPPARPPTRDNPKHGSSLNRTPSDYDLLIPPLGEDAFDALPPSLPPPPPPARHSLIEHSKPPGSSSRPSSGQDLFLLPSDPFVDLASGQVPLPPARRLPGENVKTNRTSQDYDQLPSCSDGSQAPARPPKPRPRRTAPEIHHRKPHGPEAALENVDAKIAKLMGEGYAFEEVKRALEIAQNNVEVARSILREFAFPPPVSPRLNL

| DC50 [1] | Dmax [2] | Structure (SMILES) | Dmax (THP-1) |
| --- | --- | --- | --- |
| 30 to 300 nM | 50 to 70% | Cn1cnnc1CC1(c2cccc(-n3cc4c(C(F)(F)F)cc(CN5CCC[C@@H](OCCc6ccc(CN7CCN(c8ccc9c(c8)CN([C@@H]8CCC(=O)NC8=O)C9=O)CC7)cc6)C5)cn4c3=O)c2)COC1 (single isomer, unassigned) [Compound 239] | – |
| < 30 nM | > 70% | Cn1cnnc1CC1(c2cccc(-n3cc4c(C(F)(F)F)cc(CN5CCC[C@@H](OCCc6ccc(CN7CCN(c8ccc9c(c8)CN([C@H]8CCC(=O)NC8=O)C9=O)CC7)cc6)C5)cn4c3=O)c2)COC1 (single isomer, unassigned) [Compound 240] | – |
| 30 to 300 nM | > 70% | Cn1cnnc1CC1(c2cccc(-n3cc4c(C(F)(F)F)cc(CN5CCC(OCc6ccc(C(=O)N7CCN(c8ccc9c(c8)CN([C@@H]8CCC(=O)NC8=O)C9=O)CC7)cc6)CC5)cn4c3=O)c2)COC1 (single isomer, unassigned) [Compound 243] | – |
| < 30 nM | > 70% | Cn1cnnc1CC1(c2cccc(-n3cc4c(C(F)(F)F)cc(CN5CCC(OCc6ccc(C(=O)N7CCN(c8ccc9c(c8)CN([C@H]8CCC(=O)NC8=O)C9=O)CC7)cc6)CC5)cn4c3=O)c2)COC1 (single isomer, unassigned) [Compound 244] | – |
| < 30 nM | > 70% | CN(C(=O)c1ccc(CN2CCN(c3ccc4c(c3)CN([C@H]3CCC(=O)NC3=O)C4=O)CC2)cc1)C1CCN(Cc2cc(C(F)(F)F)c3cn(-c4cccc(C5(Cc6nncn6C)COC5)c4)c(=O)n3c2)CC1 (single isomer, unassigned) [Compound 246] | – |
| 300 to 1000 nM | 30 to 50% | Cn1cnnc1[C@@H](c1cccc(-n2cc3c(C(F)(F)F)cc(CN4CCC(O[C@H]5CCCN(C(=O)c6ccc(N7CCN(c8ccc9c(c8)CN([C@@H]8CCC(=O)NC8=O)C9=O)CC7)cc6)C5)CC4)cn3c2=O)c1)C1CCC1 (single isomer, unassigned) [Compound 247] | – |
| < 30 nM | > 70% | Cn1cnnc1[C@@H](c1cccc(-n2cc3c(C(F)(F)F)cc(CN4CCC(O[C@H]5CCCN(C(=O)c6ccc(N7CCN(c8ccc9c(c8)CN([C@H]8CCC(=O)NC8=O)C9=O)CC7)cc6)C5)CC4)cn3c2=O)c1)C1CCC1 (single isomer, unassigned) [Compound 248] | – |
| 30 to 300 nM | 30 to 50% | Cn1cnnc1CC1(c2cccc(-n3cc4c(C(F)(F)F)cc(CN5CCC(OCc6ccc(N7CCN(c8ccc9c(c8)CN([C@@H]8CCC(=O)NC8=O)C9=O)CC7)cc6)CC5)cn4c3=O)c2)COC1 (single isomer, unassigned) [Compound 249] | – |
| < 30 nM | 50 to 70% | Cn1cnnc1CC1(c2cccc(-n3cc4c(C(F)(F)F)cc(CN5CCC(OCc6ccc(N7CCN(c8ccc9c(c8)CN([C@H]8CCC(=O)NC8=O)C9=O)CC7)cc6)CC5)cn4c3=O)c2)COC1 (single isomer, unassigned) [Compound 250] | – |
| < 30 nM | > 70% | Cn1cnnc1[C@@H](c1cccc(-n2cc3c(C(F)(F)F)cc(CN4CCC(OC(=O)N5CCC(CC6CCN(c7ccc8c(c7)CN([C@H]7CCC(=O)NC7=O)C8=O)CC6)CC5)CC4)cn3c2=O)c1)C1CCC1 (single isomer, unassigned) [Compound 254] | – |
| 30 to 300 nM | 50 to 70% | Cn1cnnc1CC1(c2cccc(-n3cc4c(C(F)(F)F)cc(CN5CCC(CCN6CCC(CC7CCN(c8ccc9c(c8)CN([C@@H]8CCC(=O)NC8=O)C9=O)CC7)CC6)CC5)cn4c3=O)c2)COC1 (single isomer, unassigned) [Compound 259] | – |
| < 30 nM | > 70% | Cn1cnnc1CC1(c2cccc(-n3cc4c(C(F)(F)F)cc(CN5CCC[C@@H](OC6CCN(C(=O)c7ccc(N8CCN(c9ccc%10c(c9)CN([C@H]9CCC(=O)NC9=O)C%10=O)CC8)cc7)CC6)C5)cn4c3=O)c2)COC1 (single isomer, unassigned) [Compound 264] | – |
| > 10000 nM | < 30% | Cn1cnnc1CC1(c2cccc(-n3cc4c(C(F)(F)F)cc(CNCCOCCOCCNc5cccc6c5C(=O)N(C5CCC(=O)NC5=O)C6=O)cn4c3=O)c2)COC1 (centres unmarked) [Compound 1] | – |
| > 10000 nM | < 30% | Cn1cnnc1CC1(c2cccc(-n3cc4c(C(F)(F)F)cc(CNCCOCCNc5cccc6c5C(=O)N(C5CCC(=O)NC5=O)C6=O)cn4c3=O)c2)COC1 (centres unmarked) [Compound 2] | – |
| 300 to 1000 nM | 50 to 70% | Cn1cnnc1CC1(c2cccc(-n3cc4c(C(F)(F)F)cc(CN5CCC(OCCOCc6ccc(COCCNc7cccc8c7C(=O)N(C7CCC(=O)NC7=O)C8=O)cc6)CC5)cn4c3=O)c2)COC1 (centres unmarked) [Compound 3] | – |
| > 10000 nM | < 30% | Cn1cnnc1CC1(c2cccc(-n3cc4c(C(F)(F)F)cc(CNCCOCCOCc5ccc(COCCNc6cccc7c6C(=O)N(C6CCC(=O)NC6=O)C7=O)cc5)cn4c3=O)c2)COC1 (centres unmarked) [Compound 4] | – |
| > 10000 nM | < 30% | Cn1cnnc1CC1(c2cccc(-n3cc4c(C(F)(F)F)cc(CN5CCC(OCCOCc6ccc(CNc7cccc8c7C(=O)N(C7CCC(=O)NC7=O)C8=O)cc6)CC5)cn4c3=O)c2)COC1 (centres unmarked) [Compound 12] | – |
| 1000 to 10000 nM | < 30% | Cn1cnnc1[C@@H](c1cccc(-n2cc3c(C(F)(F)F)cc(CN4CCC(OCc5ccc(COCCNc6cccc7c6C(=O)N(C6CCC(=O)NC6=O)C7=O)cc5)CC4)cn3c2=O)c1)C1CCC1 (some centres unmarked) [Compound 13] | – |
| 1000 to 10000 nM | 30 to 50% | Cn1cnnc1[C@@H](c1cccc(-n2cc3c(C(F)(F)F)cc(CN4CCC(OCCOCc5ccc(CNc6cccc7c6C(=O)N(C6CCC(=O)NC6=O)C7=O)cc5)CC4)cn3c2=O)c1)C1CCC1 (some centres unmarked) [Compound 14] | – |
| > 10000 nM | < 30% | CN(CCN1CCC(CN2CCN(c3cc4c(cc3F)C(=O)N(C3CCC(=O)NC3=O)C4=O)CC2)CC1)Cc1cc(C(F)(F)F)c2cn(-c3cccc(C4(Cc5nncn5C)COC4)c3)c(=O)n2c1 (centres unmarked) [Compound 15] | – |
| 30 to 300 nM | 50 to 70% | Cn1cnnc1[C@@H](c1cccc(-n2cc3c(C(F)(F)F)cc(CN4CCC[C@H](OCCOCc5ccc(COCCNc6cccc7c6C(=O)N(C6CCC(=O)NC6=O)C7=O)cc5)C4)cn3c2=O)c1)C1CCC1 (some centres unmarked) [Compound 17] | – |
| > 10000 nM | < 30% | Cn1cnnc1CC1(c2cccc(-n3cc4c(C(F)(F)F)cc(CN5CCC(OCCOCc6ccc(CN7CCN(c8cc9c(cc8F)C(=O)N(C8CCC(=O)NC8=O)C9=O)CC7)cc6)CC5)cn4c3=O)c2)COC1 (centres unmarked) [Compound 18] | – |
| > 10000 nM | < 30% | Cn1cnnc1CC1(c2cccc(-n3cc4c(C(F)(F)F)cc(CN5CCC(OCCOCc6ccc(CN7CCN(c8cccc9c8C(=O)N(C8CCC(=O)NC8=O)C9=O)CC7)cc6)CC5)cn4c3=O)c2)COC1 (centres unmarked) [Compound 19] | – |
| 300 to 1000 nM | 50 to 70% | Cn1cnnc1[C@@H](c1cccc(-n2cc3c(C(F)(F)F)cc(CC4CCC[C@@H](OCCOCc5ccc(COCCNc6cccc7c6C(=O)N(C6CCC(=O)NC6=O)C7=O)cc5)C4)cn3c2=O)c1)C1CCC1 (some centres unmarked) [Compound 20] | – |
| 30 to 300 nM | > 70% | Cn1cnnc1[C@@H](c1cccc(N2Cc3c(cc(CN4CCC(OCCOCc5ccc(COCCNc6cccc7c6C(=O)N(C6CCC(=O)NC6=O)C7=O)cc5)CC4)cc3C(F)(F)F)C2=O)c1)C1CCC1 (some centres unmarked) [Compound 22] | – |
| > 10000 nM | < 30% | Cn1cnnc1[C@@H](c1cccc(-n2cc3c(C(F)(F)F)cc(CN4CCC(OCCOCc5ccc(CN6CCN(c7cc8c(cc7F)C(=O)N(C7CCC(=O)NC7=O)C8=O)CC6)cc5)CC4)cn3c2=O)c1)C1CCC1 (some centres unmarked) [Compound 23] | – |

| Structure (SMILES) | DC50 [1] | Dmax [2] | Dmax (THP-1) |
| --- | --- | --- | --- |
| CN(C(=O)c1ccc(CN2CCN(c3ccc4c(c3)CN([C@@H]3CCC(=O)NC3=O)C4=O)CC2)cc1)C1CCN(Cc2cc(C(F)(F)F)c3cn(-c4cccc(C5(Cc6nncn6C)COC5)c4)c(=O)n3c2)CC1 (single isomer, unassigned) [Compound 245] | 300 to 1000 nM | 30 to 50% | – |
| Cn1cnnc1[C@@H](c1cccc(-n2cc3c(C(F)(F)F)cc(CN4CCC(OC(=O)N5CCC(CC6CCN(c7ccc8c(c7)CN([C@@H]7CCC(=O)NC7=O)C8=O)CC6)CC5)CC4)cn3c2=O)c1)C1CCC1 (single isomer, unassigned) [Compound 253] | 30 to 300 nM | 50 to 70% | – |
| Cn1cnnc1CC1(c2cccc(-n3cc4c(C(F)(F)F)cc(CN5CCC(CC(=O)N6CCC(CC7CCN(c8ccc9c(c8)CN([C@@H]8CCC(=O)NC8=O)C9=O)CC7)CC6)CC5)cn4c3=O)c2)COC1 (single isomer, unassigned) [Compound 257] | 30 to 300 nM | – | 50 to 70% |
| Cn1cnnc1CC1(c2cccc(-n3cc4c(C(F)(F)F)cc(CN5CCC(CC(=O)N6CCC(CC7CCN(c8ccc9c(c8)CN([C@H]8CCC(=O)NC8=O)C9=O)CC7)CC6)CC5)cn4c3=O)c2)COC1 (single isomer, unassigned) [Compound 258] | < 30 nM | – | > 70% |
| Cn1cnnc1CC1(c2cccc(-n3cc4c(C(F)(F)F)cc(CN5CCC[C@@H](OC6CCN(C(=O)c7ccc(N8CCN(c9ccc%10c(c9)CN([C@@H]9CCC(=O)NC9=O)C%10=O)CC8)cc7)CC6)C5)cn4c3=O)c2)COC1 (single isomer, unassigned) [Compound 263] | < 30 nM | > 70% | – |
| Cn1cnnc1CC1(c2cccc(-n3cc4c(C(F)(F)F)cc(CN5CCC(OCCN6CCC(CN7CCN(c8cc9c(cc8F)C(=O)N(C8CCC(=O)NC8=O)C9=O)CC7)CC6)CC5)cn4c3=O)c2)COC1 (centres unmarked) [Compound 7] | > 10000 nM | – | < 30% |
| Cn1cnnc1[C@@H](c1cccc(-n2cc3c(C(F)(F)F)cc(CN4CCC(OCCN5CCC(CN6CCN(c7cc8c(cc7F)C(=O)N(C7CCC(=O)NC7=O)C8=O)CC6)CC5)CC4)cn3c2=O)c1)C1CCC1 (some centres unmarked) [Compound 16] | 1000 to 10000 nM | 30 to 50% | – |
| Cn1cnnc1CC1(c2cccc(N3Cc4c(cc(CN5CCC(OCCOCc6ccc(COCCNc7cccc8c7C(=O)N(C7CCC(=O)NC7=O)C8=O)cc6)CC5)cc4C(F)(F)F)C3=O)c2)COC1 (centres unmarked) [Compound 21] | 1000 to 10000 nM | 30 to 50% | – |
